The results in this text go back to patent publication US11471460B2, “Autophagy modulators for use in treating cancer” (The United States of America,as represented by the …, priority 2017, dated 2022).

Entries after “also recorded” stand apart in the source; their conditions may differ. Bounds are passed on as bounds.

The test system of data set [1] is melanoma A375 cells. The data set is described as follows: Cytoplasmic vacuolization of A375 cells. The data set is classed as cell-based, human.
In data set [2] the test system is melanoma A375 cells. Briefly: Tumor formation by pretreated A375 cells in nude mice. The class given is in vivo. The source says: (§1) Viability was quantified by trypan blue dye exclusion method. The images confirmed the presence of cytoplasmic vacuolization occurred only in the compound 1 treated cells. […] The left flank received cells pretreated with vehicle and the right flank received cells pretreated with compound 1. At 27 days later, mice were photographed, and tumors excised. […] Error bars indicate the SEM for 5 tumors.
(§2) To determine whether or not compound 1 could inhibit progression of a tumor that arose from autophagy-dependent cancer cells, melanoma A375 cells were pretreated with either vehicle or compound 1 and then assayed for their ability to produce a tumor. Pretreatment consisted of culturing A375 cells for 8 hours with 10 μM compound 1. The cells were then recovered by trypsinization and their viability confirmed by trypan blue exclusion. […] The cells were then inoculated subcutaneously into the flanks of immuno-compromised mice.

For a further data set, the system named is U2OS cells. The data set is described as follows: Size of LAMP1-RFP-labeled vacuoles (lysosomes), confocal microscopy. The data set is classed as cell-based, human. The procedure:
LAMP1 protein is a lysosomal membrane marker. Nuclei were stained with DAPI. Therefore, the enlarged cytoplasmic vacuoles induced by compounds from this invention are lysosomes.
The selection of circular, enlarged, lysosomes was carried out using a size mask of 0.5 to 5.0 μm^2. Punctate lysosomes were selected with a size mask of 0.1 to 1.5 μm^2. Thresholds were the same for all images. Clustered lysosomes were not included in the size analysis. The mean area (μm^2)±SEM was plotted (O). From 235 to 545 lysosomes were measured for each time point. The number of lysosomes per μm^2 (E) was determined at the beginning and end of this experiment and plotted on a separate Y-axis.

Data set [3] has as its system LC3-II and p62 in U2OS cells. The data set is described as follows: Accumulation of autophagosome markers LC3-II and p62, Western immuno-blotting. The class given is cell-based, human. As to the method:
Cells were cultured for 4 hrs before total cell extracts were subjected to Western immuno-blotting for LC3, p62 and β-actin. Blot was developed with film. […] (C) U2OS cells were cultured for the times indicated in the presence of 1.2 μM compound 1 to produce 80% of the maximum observed in FIG. 10A. Total cell extracts were assayed at the times indicated. […] All blots were stained with Ponceau S […].
(§3) Total cell lysates were prepared (in 4× dye). Proteins were fractionated at 200V in a NuPAGE 4-12% bis-tris polyacrylamide gel (NP0323, Novex) using NuPAGE MES running buffer (NP0002, Novex) and then stained with PageBlue (24260, Thermo Scientific) in order to quantify the relative amount of histones in each sample. […] Proteins were wet-transferred onto nitrocellulose membranes (162-0112, Bio-Rad) using NuPAGE transfer buffer (NP-0006-1, Novex) for 1 hour at 30V. Membranes were then stained with dilute Ponceau S solution, blocked in 5% milk for 30 minutes at room temperature, and incubated overnight at 4° C. in primary antibody. Membranes were washed with phosphate buffered saline with tween 20 (PBST) three times for 10 min. each, incubated with secondary antibodies in 5% milk for 1 hour, washed three times with PBST again, covered in ECL (SuperSignal West Pico chemiluminescent substrate, 34080, Thermo Scientific) and exposed to film (HyBlot ES, E3218, Denville Scientific).

The next data set deals with osteosarcoma U2OS cells. The data set is described as follows: Induction of cytoplasmic vacuoles (enlarged lysosomes) in U2OS cells, light microscopy. The data set is classed as cell-based, human. An excerpt:
Vehicle is the concentration of DMSO that was introduced by addition of compounds.
These effects are dependent on the compound selected, its concentration and the length of time cells are exposed to the compound.
Cells were obtained from the American Type Culture Collection. BORCS5-KO HeLa cells have been described previously. Osteosarcoma U2OS were routinely seeded in 6-well plates (0.5×10^5 cells/well) and cultured in Dulbecco's Modified Eagle's medium supplemented with L-Glutamine, 4.5 g/L Glucose, Sodium Pyruvate, Phenol Red, and either heat-inactivated or normal 10% fetal calf serum at 37° C. in 5% CO2. Approximately 15-19 hours later, the indicated compound was added in 1:1000 dilutions. Results were the same using either heat-inactivated or normal fetal calf serum. Melanoma A375, embryonic kidney 293T and human foreskin fibroblast Hs27 cells were cultured in the same medium, except that cells were seeded into 12-well plates at 10^3 cells/well.
Phase contrast photographs were taken on an Olympus CKX41 microscope. Confocal photographs were taken on a Leica TCS-SP5II. For immunofluorescence microscopy, the cells were fixed in 4% paraformaldehyde (Electron Microscopy Sciences, 15714) in PBS for 12 min, permeabilized with 0.2% Triton X-100 in PBS for 10 min, and blocked in 0.2% BSA (Sigma-Aldrich, A7030) in PBS for 30 min at 37° C. For endogenous LC3 staining, cells were permeabilized in methanol for 20 min at −20° C. after the paraformaldehyde fixation. The cells were sequentially incubated with primary antibodies (LAMP1: Developmental Studies Hybridoma Bank; LC3 and LAMTOR4: Cell Signaling Technology; FLAG epitope: Sigma-Aldrich) and secondary antibodies conjugated to Alexa Fluor dyes (Life Technologies) diluted with 0.2% BSA in PBS for 30 min at 37° C. Coverslips were mounted on glass slides using Fluoromount-G (Electron Microscopy Sciences, 17984-24). Cells were imaged using a Zeiss LSM880 with AiryScan confocal microscope (Carl Zeiss AG, Oberkochen, Germany) or a Leica TCS-SP5II. The final composite images were created and properly analyzed for lysosomal size examination using ImageJ (NIH).

For data set [4], the system named is cathepsin D (CTSD) in U2OS cells. The data set is described as follows: Cathepsin D maturation, Western immuno-blotting. The data set is classed as cell-based, human. The settings on record: 4 h. As to the method:
Mature and immature cathepsin D (CTSD), LC3-I, LC3-II, and β-actin proteins were identified by Western immuno-blotting, under the same conditions, and detected with specific antibodies and by co-fractionation with molecular mass markers (kDa). Cathepsin D maturation via proteolysis requires acidity.
as §3

Data set [5] is described as follows: Viability of A375 cells after pretreatment, trypan blue exclusion. The conditions noted are these: human, A375 melanoma cells, vehicle 94%, read-out: Viable cells after pretreatment. The data set is classed as cell-based.
Text: as §1, §2

With `C1=Nc2ccccc2/C1=C/NNc1nc(Nc2ccccc2)nc(N2CCOCC2)n1` [compound 1], the “Cytoplasmic vacuolization of A375 cells” value in the data set on melanoma A375 cells [1] is recorded as “induced extensive cytoplasmic vacuolization”. In the data set with melanoma A375 cells [2] (A375 cells pretreated 8 hours with 10 μM, subcutaneous), the “Tumor xenograft formation by pretreated cells” value is listed as “decidedly less efficient; also recorded: inhibited their ability to form a tumor”. Besides, the “Ill effects on mice” value in the data set on melanoma A375 cells [2] (mouse weight) was “no ill effects on mice”. Also, the “Time for lysosomal motility and size to revert after removal of the compound” value in the data set with U2OS cells (live cells expressing LAMP1-RFP) is recorded as “within one hour”. In addition, the “Increase in size of LAMP1-labeled vacuoles” value in the data set on U2OS cells (within 20 hours, 1 μM) is 9 fold. In addition, in data set [3], the “Delay of p62 accumulation relative to LC3-II” value was “about 3 hours” and the “Sensitivity of inhibition of lysosome fission relative to accumulation of autophagosomes” value is given as “at least 5 fold”. The “Concentration required for near maximum levels of LC3-II accumulation” value in data set [3] (4 hrs) fell in the range of 0.1 to 0.5 µM. In data set [3] (U2OS cells), the “Accumulation of LC3-II” value is “comparable increase in LC3-II”; the “Time to accumulation of LC3-II and p62” value is at most 4 h. Also, the “Time to detect vacuoles by light microscopy” value in the data set with osteosarcoma U2OS cells (U2OS cells) is at most 20 min. In addition, the “Variation of the concentration required to induce vacuolization, most potent compared to least potent” value in the data set with osteosarcoma U2OS cells (U2OS cells, compound 1 compared to compound 3) is 400 fold. For the same compound, the “Concentration at which 80% of the cells were vacuolated” value in the data set on osteosarcoma U2OS cells (by 4 hours) fell in the range of 0.01 to 0.1 µM. In the data set on osteosarcoma U2OS cells (same U2OS cells), the “Concentration to induce LC3-II accumulation, inhibit proliferation or viability relative to concentration to observe vacuolization” value is “about 30 fold”. Moreover, in data set [4], the “Cellular level of mature cathepsin D relative to vehicle treated cells” value is reported as “about 50%”. Moreover, the viability at 8 h, 10 µM in data set [5] was determined as 92%.
